Experimental data: ChEMBL document CHEMBL1201862, “PubChem BioAssay data set” (2004)
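Following 48 hours of exposure in 96-well plates, responses at five concentrations were used to interpolate endpoints linearly. At the GI50, growth is halved.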 The source made the active and inactive calls. Cut-off read from the data, not from the text of the source: active = GI50 up to about 1.1 µM and inactive = higher.

Experiments:
Assay in all cases: NCI tumour cell line growth inhibition, 48 h
PC-3 = tested on: PC-3
U-251 = tested on: U-251
HCT-116 = tested on: HCT-116
SK-MEL-5 = tested on: SK-MEL-5
MDA-N = tested on: MDA-N
HCC 2998 = tested on: HCC 2998
SR = tested on: SR
UACC-62 = tested on: UACC-62
M14 = tested on: M14
T47D = tested on: T47D
SK-OV-3 = tested on: SK-OV-3
ACHN = tested on: ACHN
IGROV-1 = tested on: IGROV-1
NCI/ADR-RES = tested on: NCI/ADR-RES
DU-145 = tested on: DU-145
OVCAR-4 = tested on: OVCAR-4
LOX IMVI = tested on: LOX IMVI
EKVX = tested on: EKVX
HT-29 = tested on: HT-29

SMILES	GI50 (PC-3)	GI50 (U-251)	GI50 (HCT-116)	GI50 (SK-MEL-5)	GI50 (MDA-N)	GI50 (HCC 2998)	GI50 (SR)	GI50 (UACC-62)	GI50 (M14)	GI50 (T47D)	GI50 (SK-OV-3)	GI50 (ACHN)	GI50 (IGROV-1)	GI50 (NCI/ADR-RES)	GI50 (DU-145)	GI50 (OVCAR-4)	GI50 (LOX IMVI)	GI50 (EKVX)	GI50 (HT-29)
OCCNCCN1CCN(CCCN2c3ccccc3Sc3ccc(C(F)(F)F)cc32)CC1	32 µM (inactive)	20.3 µM (inactive)	17.9 µM (inactive)	> 100 µM (inactive)	19 µM (inactive)	27.4 µM (inactive)	> 100 µM (inactive)	22.3 µM (inactive)	15.3 µM (inactive)	27.1 µM (inactive)	33.6 µM (inactive)	24.9 µM (inactive)	> 100 µM (inactive)	27.8 µM (inactive)	50.6 µM (inactive)	25.8 µM (inactive)	14.5 µM (inactive)	28.1 µM (inactive)	14 µM (inactive)
CC(=O)OCC1OC(n2c3c(c(-c4ccc(Cl)cc4)c(C#N)c2=S)CCCC3)C(OC(C)=O)C(OC(C)=O)C1OC(C)=O (stereo not given)	25.5 µM (inactive)	88.9 µM (inactive)	33.3 µM (inactive)	16.7 µM (inactive)	42.8 µM (inactive)	> 100 µM (inactive)	> 100 µM (inactive)	23.3 µM (inactive)	81.1 µM (inactive)	36.7 µM (inactive)	75.2 µM (inactive)	43.8 µM (inactive)	45.9 µM (inactive)	46.5 µM (inactive)	42.6 µM (inactive)	25.5 µM (inactive)	44.9 µM (inactive)		57.5 µM (inactive)
CCCCCCCCOCC1S(=O)(=O)OCCOS1(=O)=O	> 100 µM (inactive)	> 100 µM (inactive)	> 100 µM (inactive)	> 100 µM (inactive)	> 100 µM (inactive)	> 100 µM (inactive)	40.4 µM (inactive)	> 100 µM (inactive)	> 100 µM (inactive)	> 100 µM (inactive)	> 100 µM (inactive)	> 100 µM (inactive)	> 100 µM (inactive)	> 100 µM (inactive)	> 100 µM (inactive)	> 100 µM (inactive)	> 100 µM (inactive)	> 100 µM (inactive)	> 100 µM (inactive)
CS(=O)(=O)Nc1ccc2ccccc2c1-c1c(NS(C)(=O)=O)ccc2ccccc12	> 25 µM (inactive)	> 25 µM (inactive)	> 18.6 µM (inactive)	> 25 µM (inactive)	> 25 µM (inactive)	> 25 µM (inactive)	> 25 µM (inactive)		> 25 µM (inactive)	> 25 µM (inactive)	> 25 µM (inactive)	0.982 µM (active)	> 25 µM (inactive)	> 25 µM (inactive)	> 25 µM (inactive)	> 25 µM (inactive)	> 25 µM (inactive)	> 25 µM (inactive)	> 25 µM (inactive)
CCOC(=O)CCC(NC(=O)Cc1ccc(Nc2nc3cc(F)c(F)cc3nc2C(=O)OCC)cc1)C(=O)OCC (stereo not given)	> 100 µM (inactive)	> 100 µM (inactive)	83.9 µM (inactive)	> 100 µM (inactive)	> 100 µM (inactive)	> 100 µM (inactive)	27.5 µM (inactive)	58.7 µM (inactive)	> 100 µM (inactive)	25.2 µM (inactive)	> 100 µM (inactive)	> 100 µM (inactive)		> 100 µM (inactive)	> 100 µM (inactive)	> 100 µM (inactive)	44.4 µM (inactive)	> 100 µM (inactive)	> 100 µM (inactive)
COc1cccc(CCCNC(=O)Cc2cc(OC)c(OC)cc2CO)c1	> 100 µM (inactive)	> 100 µM (inactive)	> 100 µM (inactive)	83.2 µM (inactive)	> 100 µM (inactive)	> 100 µM (inactive)	> 100 µM (inactive)	> 100 µM (inactive)	> 100 µM (inactive)	39.1 µM (inactive)		> 100 µM (inactive)	> 100 µM (inactive)	> 100 µM (inactive)	> 100 µM (inactive)	> 100 µM (inactive)	> 100 µM (inactive)	> 100 µM (inactive)	> 100 µM (inactive)
COc1ccc(/C=C2\Sc3nnc(-c4ccccc4)n3N=C2c2cc(F)c(Cl)cc2Cl)cc1OC	66.2 µM (inactive)	> 100 µM (inactive)	6.24 µM (inactive)	> 100 µM (inactive)	23.1 µM (inactive)	14.3 µM (inactive)	2.14 µM (inactive)		29.3 µM (inactive)	29.6 µM (inactive)	> 100 µM (inactive)	> 100 µM (inactive)	40.4 µM (inactive)	33.1 µM (inactive)	> 100 µM (inactive)	18.2 µM (inactive)	> 100 µM (inactive)	> 100 µM (inactive)	12.1 µM (inactive)
CCOC(=O)c1ccc(C(=O)OCC)n1-c1cc2cc(c1)CSCc1cc(cc(-n3c(C(=O)OCC)ccc3C(=O)OCC)c1)CSC2	> 10 µM (inactive)	> 10 µM (inactive)	> 10 µM (inactive)	> 10 µM (inactive)	> 10 µM (inactive)	> 10 µM (inactive)	> 10 µM (inactive)	> 10 µM (inactive)	> 10 µM (inactive)	> 10 µM (inactive)	> 10 µM (inactive)	> 10 µM (inactive)	> 10 µM (inactive)	> 10 µM (inactive)	> 10 µM (inactive)	> 10 µM (inactive)	> 10 µM (inactive)	> 10 µM (inactive)	> 10 µM (inactive)
COC(=O)C1=C(C)NC(C)=C([N+](=O)[O-])C1c1cccc(NO)c1 (stereo not given)	2.94 µM (inactive)	5.22 µM (inactive)	2.37 µM (inactive)	2.72 µM (inactive)	1.79 µM (inactive)	4.53 µM (inactive)	2.53 µM (inactive)	6.55 µM (inactive)	3.44 µM (inactive)	3.27 µM (inactive)	7.38 µM (inactive)	3.1 µM (inactive)	5.01 µM (inactive)	4.16 µM (inactive)	6.67 µM (inactive)	6.04 µM (inactive)	3.5 µM (inactive)	4.34 µM (inactive)	2.86 µM (inactive)
CCNC1CC(C(C)(C)NCC)CC=C1C (stereo not given)	> 100 µM (inactive)	> 100 µM (inactive)	> 100 µM (inactive)	> 100 µM (inactive)	> 100 µM (inactive)	> 100 µM (inactive)	> 100 µM (inactive)	> 100 µM (inactive)	> 100 µM (inactive)	> 100 µM (inactive)	> 100 µM (inactive)		> 100 µM (inactive)	> 100 µM (inactive)	> 100 µM (inactive)	> 100 µM (inactive)	> 100 µM (inactive)	> 100 µM (inactive)	> 100 µM (inactive)
Clc1ccc(/N=C/c2cc3cc(Br)ccc3nc2Cl)cc1	15.7 µM (inactive)		12 µM (inactive)	6.59 µM (inactive)	11.2 µM (inactive)	32.3 µM (inactive)	10.1 µM (inactive)		14.4 µM (inactive)	> 50 µM (inactive)			17.8 µM (inactive)	45.1 µM (inactive)	> 50 µM (inactive)	5.12 µM (inactive)	6.18 µM (inactive)	29.6 µM (inactive)	16 µM (inactive)
O=C1O[C@H]2C3C4CCC(C4[C@@H]2I)[C@H]13 (stereo not given in full)	> 100 µM (inactive)	> 100 µM (inactive)	> 100 µM (inactive)	> 100 µM (inactive)	> 100 µM (inactive)	> 100 µM (inactive)	> 100 µM (inactive)	> 100 µM (inactive)	> 100 µM (inactive)	> 100 µM (inactive)		> 100 µM (inactive)	> 100 µM (inactive)	> 100 µM (inactive)	> 100 µM (inactive)	> 100 µM (inactive)	> 100 µM (inactive)	> 100 µM (inactive)	> 100 µM (inactive)
CCOc1cc(C2SCC(=O)N2c2ccc3c(c2)Oc2c(Cl)c4c(c(Cl)c2=N3)Oc2cc(N3C(=O)CSC3c3ccc(O)c(OCC)c3)ccc2N=4)ccc1O (stereo not given)	48.6 µM (inactive)	21 µM (inactive)	18 µM (inactive)	45.8 µM (inactive)	34.8 µM (inactive)	21.9 µM (inactive)	2.08 µM (inactive)		27.2 µM (inactive)	11 µM (inactive)		26.6 µM (inactive)	41.9 µM (inactive)	39 µM (inactive)	29.9 µM (inactive)	46.3 µM (inactive)	35.2 µM (inactive)	37.2 µM (inactive)	39.8 µM (inactive)
CC(=O)c1ccc2c(c1)CC1(C2)Cc2cc3c(cc2C1=O)CCC3 (stereo not given)	19.2 µM (inactive)	30.3 µM (inactive)	17.5 µM (inactive)	10.3 µM (inactive)	14.4 µM (inactive)	18.6 µM (inactive)	3.04 µM (inactive)		15 µM (inactive)	20.5 µM (inactive)	33.6 µM (inactive)	16.1 µM (inactive)	19.8 µM (inactive)	12.2 µM (inactive)	24.3 µM (inactive)	15.1 µM (inactive)	17.7 µM (inactive)	25.2 µM (inactive)	15.7 µM (inactive)
O=c1cc(O)c2ccccc2o1 [4-HYDROXYCOUMARINS]	> 100 µM (inactive)	> 100 µM (inactive)	> 100 µM (inactive)	> 100 µM (inactive)	> 100 µM (inactive)	> 100 µM (inactive)	> 100 µM (inactive)	> 100 µM (inactive)	> 100 µM (inactive)	> 100 µM (inactive)		> 100 µM (inactive)	> 100 µM (inactive)	> 100 µM (inactive)	> 100 µM (inactive)	> 100 µM (inactive)	> 100 µM (inactive)	> 100 µM (inactive)	> 100 µM (inactive)
